Results: patent US9351488B2, “Peracetic acid composition” (PEROXYCHEM LLC, priority 2006, dated 2016)

Experiment: Kill rate of peracetic acid 400-660 ppm with and without adjuvant
Format: cell-based
Conditions: peracetic acid 400-660 ppm in aqueous solution
Text: Use of oxidative lysing agents such as peracetic acid in aqueous solution at concentration(s) ranging from 400-660 ppm provided only moderate kill rates with log reductions of 4-5.5. However, use of peracetic acid at the same concentrations with the addition of the adjuvant herein described produced improved kill rates up to complete destruction of the species with log reductions of 6 or recovery rates of 0.

In the case of `CC(=O)OO` [peracetic acid], the log reductions is reported as 4-5.5 log.
